Marks after values point to notes of the source that are not given here.
System: osteoclast differentiation
Assay: Osteoclast differentiation in co-culture of mouse bone marrow cells and ST2 cells, TRAP staining (Examples 8-9)
Format: cell-based
Conditions: for % number of osteoclast (vs. solvent control group): 0.1 μM each, day 7; for activity at 0.1 µM: Mus musculus, Osteoclast, 168 h, Individual treatment (compounds), day 7, read-out: % number of osteoclast (vs. solvent control group)
Method in brief: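 Bone marrow cells from 6-8-week male ddY mice were co-cultured with ST2 stromal cells under 10^−8 M vitamin D3 and 10^−8 M dexamethasone, with compounds at 0.1 μM final (0.1% DMSO control), refreshed on days 3 and 5. On day 7, TRAP-positive osteoclasts with ≥6 nuclei were counted and expressed as % of solvent control (n=4).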

[1] = Combination treatment (alendronic acid + compounds)
[2] = Combination treatment (risedronic acid + compounds)

| SMILES | % number of osteoclast (vs. solvent control group) [1] | % number of osteoclast (vs. solvent control group) [2] | activity at 0.1 µM [%] |
| --- | --- | --- | --- |
| N=C(NO)c1ccc(OCCCCCOc2ccc(-c3nc(CN4CCCCC4)sc3CCN3CCOCC3)cc2)cc1 [Compound 276, N-hydroxy-4-(5-{4-[5-(2-morpholin-4-yl-ethyl)-2-piperidin-1-yl-methyl-thiazol-4-yl]-phenoxy}-pentyloxy)-benzamidine] | 21 ± 2.9^b % | 11 ± 3.1^c % | 41 ± 12.1 |
| CC(C)c1nc(-c2ccc(OCCCCCOc3ccc(C(=N)NO)cc3)cc2)c(CCN(C(=O)c2ccncc2)C2CC2)s1 [Compound 280, N-hydroxy-4-{5-[4-(5-{2-[cyclopropyl-(pyridin-4-carbonyl)-amino]-ethyl}-2-isopropyl-thiazol-4-yl)-phenoxy]-pentyloxy}-benzamidine] | 25 ± 6.4^b % | 8 ± 1.4^ac % | 40 ± 5 |
| N=C(NO)c1ccc(OCCCCCOc2ccc(-c3nc(C4CCCCC4)sc3CCN(C(=O)c3cccnc3)C3CC3)cc2)cc1 [Compound 281, N-hydroxy-4-{5-[4-(2-cyclohexyl-5-{2-[cyclopropyl-(pyridin-3-carbonyl)-amino]-ethyl}-thiazol-4-yl)-phenoxy]-pentyloxy}-benzamidine] | 22 ± 5.9^b % | 6 ± 2.5^ac % | 30 ± 7.6 |
| CNC(=O)c1sc(C)nc1-c1ccc(OCCCCCOc2ccc(C(=N)NO)cc2)cc1 [Compound 282, N-hydroxy-4-{5-[4-(5-methylcarbamoyl-2-methyl-thiazol-4-yl)-phenoxy]-pentyloxy}-benzamidine] | 49 ± 9.9^ab % | 45 ± 5.2^ac % | 73 ± 7.1 |
| Cc1nc(-c2ccc(OCCCCCOc3ccc(C(=N)NO)cc3)cc2)c(C(=O)NCCCn2ccnc2)s1 [Compound 284, N-hydroxy-4-{5-[4-(5-{3-imidazol-1-yl-propylcarbamoyl}-2-methyl-thiazol-4-yl)-phenoxy]-pentyloxy}-benzamidine] | 36 ± 5.0^ab % | 19 ± 5.8^ac % | 73 ± 7.7 |
| CNC(=O)c1sc(N)nc1-c1ccc(OCCCCCOc2ccc(C(=N)NO)cc2)cc1 [Compound 285, N-hydroxy-4-{5-[4-(2-amino-5-methylcarbamoyl-thiazol-4-yl)-phenoxy]-pentyloxy}-benzamidine] | 53 ± 0.9% | 40 ± 3.9^ac % | 70 ± 8 |
| Cc1nc(-c2ccc(OCCCCCOc3ccc(C(=N)NO)cc3)cc2)c(N2CCOCC2)s1 [Compound 286, N-hydroxy-4-{5-[4-(2-methyl-5-morpholin-4-yl-thiazol-4-yl)-phenoxy]-pentyloxy}-benzamidine] | 29 ± 4.1^b % | 26 ± 1.5^ac % | 43 ± 6.1 |
| CN1CCN(c2sc(N3CCOCC3)nc2-c2ccc(OCCCCCOc3ccc(C(=N)NO)cc3)cc2)CC1 [Compound 289, N-hydroxy-4-(5-{4-[5-(4-methyl-piperazin-1-yl)-2-morpholine-4-yl-thiazol-4-yl]-phenoxy}-pentyloxy)-benzamidine] | 21 ± 7.4^b % | 10 ± 3.1^ac % | 36 ± 9.1 |
| N=C(NO)c1ccc(OCCCCCOc2ccc(-c3nc(N4CCOCC4)sc3N3CCOCC3)cc2)cc1 [Compound 290, N-hydroxy-4-{5-[4-(2,5-di-morpholin-4-yl-thiazol-4-yl)-phenoxy]-pentyloxy}-benzamidine] | 23 ± 4.7^ab % | 12 ± 2.0^ac % | 52 ± 6.2 |
| N=C(NO)c1ccc(OCCCCCOc2ccc(-c3nc(N4CCOCC4)sc3N3CCSCC3)cc2)cc1 [Compound 291, N-hydroxy-4-{5-[4-(2-morpholin-4-yl-5-thiomorpholin-4-yl-thiazol-4-yl)-phenoxy]-pentyloxy}-benzamidine] | 20 ± 3.8^ab % | 12 ± 3.5^ac % | 44 ± 4.9 |
| Cc1nc(-c2ccc(OCCCCCOc3ccc(C(=N)NO)cc3)cc2)c(CN2CCOCC2)s1 [Compound 293, N-hydroxy-4-{5-[4-(2-methyl-5-morpholin-4-ylmethyl-thiazol-4-yl)-phenoxy]-pentyloxy}-benzamidine] | 15 ± 2.6^b % | 11 ± 2.6^c % | 36 ± 10 |
| Cc1nc(-c2ccc(OCCCCCOc3ccc(C(=N)NO)cc3)cc2)c(CN2CCN(C)CC2)s1 [Compound 294, N-hydroxy-4-(5-{4-[2-methyl-5-(4-methyl-piperazin-1-ylmethyl)-thiazol-4-yl]-phenoxy}-pentyloxy)-benzamidine] | 13 ± 2.4^ab % | 9 ± 2.7^ac % | 27 ± 4.5 |
| Cc1nc(-c2ccc(OCCCCCOc3ccc(C(=N)NO)cc3)cc2)c(CN2CCCCC2)s1 [Compound 296, N-hydroxy-4-{5-[4-(2-methyl-5-piperidin-1-ylmethyl-thiazol-4-yl)-phenoxy]-pentyloxy}-benzamidine] | 13 ± 2.6^ab % | 8 ± 1.7^ac % | 46 ± 3.6 |
| CCCCNCc1sc(C)nc1-c1ccc(OCCCCCOc2ccc(C(=N)NO)cc2)cc1 [Compound 298, N-hydroxy-4-{5-[4-(5-butylaminomethyl-2-methyl-thiazol-4-yl)-phenoxy]-pentyloxy}-benzamidine] | 16 ± 3.3^ab % | 8 ± 2.9^ac % | 55 ± 6.1 |
| Cc1nc(-c2ccc(OCCCCCOc3ccc(C(=N)NO)cc3)cc2)c(CNCC(C)C)s1 [Compound 299, N-hydroxy-4-(5-{4-[5-(isobutylamino-methyl)-2-methyl-thiazol-4-yl]-phenoxy}-pentyloxy)-benzamidine] | 14 ± 2.9^ab % | 11 ± 6.0^ac % | 40 ± 6.9 |
| Cc1nc(-c2ccc(OCCCCCOc3ccc(C(=N)NO)cc3)cc2)c(CNC(C)(C)C)s1 [Compound 300, N-hydroxy-4-(5-{4-[5-(tert-butylamino-methyl)-2-methyl-thiazol-4-yl]-phenoxy}-pentyloxy)-benzamidine] | 12 ± 1.7^ab % | 8 ± 5.2^ac % | 48 ± 3 |
| CCCNCc1sc(C)nc1-c1ccc(OCCCCCOc2ccc(C(=N)NO)cc2)cc1 [Compound 301, N-hydroxy-4-{5-[4-(2-methyl-5-propylaminomethyl-thiazol-4-yl)-phenoxy]-pentyloxy}-benzamidine] | 10 ± 2.3^ab % | 6 ± 2.3^ac % | 49 ± 5.1 |
| Cc1nc(-c2ccc(OCCCCCOc3ccc(C(=N)NO)cc3)cc2)c(CNCCN2CCOCC2)s1 [Compound 302, N-hydroxy-4-[5-(4-{2-methyl-5-[(2-morpholin-4-yl-ethylamino)-methyl]-thiazol-4-yl}-phenoxy)-pentyloxy]-benzamidine] | 16 ± 4.5^ab % | 9 ± 2.8^ac % | 59 ± 10.6 |

From patent US8008329B2 (Dong Wha Pharmaceutical Co., Ltd., priority 2008, dated 2011)
